Measurements: patent US20240207302A1, “ANTIVIRAL COMPOUNDS, METHODS FOR THE MANUFACTURING OF COMPOUNDS, ANTIVIRAL PHARMACEUTICAL COMPOSITION, USE OF THE COMPOUNDS AND METHOD FOR THE ORAL TREATMENT OF CORONAVIRUS INFECTION AND RELATED DISEASES THEREOF” (priority 2021, published 2024)
Marks after values point to notes of the source that are not given here.

Assays:
[1] = system: SARS-COV-2; test: SARS-COV-2 viral RNA synthesis in Vero cells (real time RT-PCR); type: cell-based; details: Severe acute respiratory syndrome coronavirus 2; Vero (MOI 0.01 24 h); read-out: EC50
[2] = Repeated dose 28-day oral toxicity study; type: in vivo, mice
Experimental: FIG. 10A and 10B. […] Body weight gain in weeks (A) in males and (B) in females by 4 weeks. […] Body weight was measured once a week.
These experiments were conducted in compliance with the GLP principles. Morbidity, mortality, body weight in male (FIG. 10A) and female (FIG. 10B), food consumption as well as general and detailed clinical signs were evaluated. In the last week, urine samples from all animals were collected for analysis. At necropsy, blood samples were collected for hematological, biochemical and coagulation analyses, followed by tissue and organ collection for macroscopic and histopathological analyses.

[3] = system: SARS-COV-2 viral RNA; test: Immunoprecipitation of viral RNA with anti-kinetin antibody, RT-PCR; type: cell-based; details: SARS-COV-2-infected calu-3 cells
[4] = system: SARS-COV-2; test: Combination with SARS-COV-2 nsp14 (exonuclease) inhibitors in Calu-3 cells, infectious virus titers; type: cell-based
[5] = female mice, 10 mg/kg oral once daily for 28 days
[6] = female mice, 80 mg/kg oral once daily for 28 days
[7] = female mice, 250 mg/kg oral once daily for 28 days
[8] = female mice, 10 mg/kg daily, 28 days
[9] = female mice, 80 mg/kg daily, 28 days
[10] = female mice, 250 mg/kg daily, 28 days
[11] = male mice, 10 mg/kg daily, 28 days
[12] = male mice, 80 mg/kg daily, 28 days
[13] = male mice, 250 mg/kg daily, 28 days
[14] = Severe acute respiratory syndrome coronavirus 2, Calu-3, alone or in combination as labelled

With `c1coc(CNc2ncnc3[nH]cnc23)c1` [MB-905, kinetin] the EC50 [1] was 5 µM, the NOAEL at 28 days ([2]; both sexes, CD1, mouse, in vivo, mice, oral, 28-day study) was 80 mg/kg and the “ALB (Albumin), Mean” value [2, 5] was 2.67 g/dL. For the same molecule, the “ALT (Alanine aminotransferase), Mean” value [2, 5] was 43.72 U/L, the “AST (Aspartate Aminotransferase), Mean” value [2, 5] was 91.88 U/L and the “BT (Total Bilirubin), Mean” value [2, 5] was 0.39 mg/dL. For the same molecule, the “CA (Calcium), Mean” value [2, 5] was 9.77 mg/dL, the “CRE (Creatinine), Mean” value [2, 5] was 0.29 mg/dL and the “CT (Total cholesterol), Mean” value [2, 5] was 98.17 mg/dL. The “FA (Alkaline phosphatase), Mean” value [2, 5] was 108.75 U/L, the “GGT (Gamma-glutamyltransferase), Mean” value [2, 5] was 0.00 U/L and the “GLUCOSE, Mean” value [2, 5] was 118.56 mg/dL. The “P (Phosphorus), Mean” value [2, 5] was 4.69 mg/dL, the “PT (Total protein), Mean” value [2, 5] was 5.84 g/dL and the “TRI (Triglycerides), Mean” value [2, 5] was 62.00 mg/dL. The “UREIA, Mean” value [2, 5] was 54.93 mg/dL, the “ALB (Albumin), Mean” value [2, 6] was 2.91 g/dL and the “ALT (Alanine aminotransferase), Mean” value [2, 6] was 52.50 U/L. For the same molecule, the “AST (Aspartate Aminotransferase), Mean” value [2, 6] was 119.73 U/L, the “BT (Total Bilirubin), Mean” value [2, 6] was 0.41 mg/dL and the “CA (Calcium), Mean” value [2, 6] was 8.34 mg/dL. For the same molecule, the “CRE (Creatinine), Mean” value [2, 6] was 0.25 mg/dL, the “CT (Total cholesterol), Mean” value [2, 6] was 119.86 mg/dL and the “FA (Alkaline phosphatase), Mean” value [2, 6] was 77.20 U/L. For the same molecule, the “GGT (Gamma-glutamyltransferase), Mean” value [2, 6] was 0.00 U/L, the “GLUCOSE, Mean” value [2, 6] was 138.04 mg/dL and the “P (Phosphorus), Mean” value [2, 6] was 5.47 mg/dL. The “PT (Total protein), Mean” value [2, 6] was 5.99 g/dL, the “TRI (Triglycerides), Mean” value [2, 6] was 92.90 mg/dL and the “UREIA, Mean” value [2, 6] was 44.12 mg/dL. For the same molecule, the “ALB (Albumin), Mean” value [2, 7] was 3.29 g/dL, the “ALT (Alanine aminotransferase), Mean” value [2, 7] was 44.84 U/L and the “AST (Aspartate Aminotransferase), Mean” value [2, 7] was 127.67 U/L. The “BT (Total Bilirubin), Mean” value [2, 7] was 0.34 mg/dL, the “CA (Calcium), Mean” value [2, 7] was 10.26 mg/dL and the “CRE (Creatinine), Mean” value [2, 7] was 0.30 mg/dL. The “CT (Total cholesterol), Mean” value [2, 7] was 126.67 mg/dL, the “FA (Alkaline phosphatase), Mean” value [2, 7] was 80.40 U/L and the “GGT (Gamma-glutamyltransferase), Mean” value [2, 7] was 0.20 U/L. The “GLUCOSE, Mean” value [2, 7] was 135.84 mg/dL, the “P (Phosphorus), Mean” value [2, 7] was 5.44 mg/dL and the “PT (Total protein), Mean” value [2, 7] was 6.79 g/dL. The “TRI (Triglycerides), Mean” value [2, 7] was 108.33 mg/dL, the “UREIA, Mean” value [2, 7] was 73.50 mg/dL and the HCT [2, 8] was 40.60%. It also gave an HGB [2, 8] of 13.58 g/dL, an MCH [2, 8] of 17.51 pg and an MCHC [2, 8] of 31.74 g/dL. For the same molecule, the MCV [2, 8] was 52.32 fL, the PLT [2, 8] was 1.07322e+06 µL⁻¹ and the RBC [2, 8] was 7.76e+06 µL⁻¹. The W-LCR [2, 8] was 36.41%, the W-MCR [2, 8] was 5.03% and the W-SCR [2, 8] was 57.60%. The WBC [2, 8] was 1700 µL⁻¹, the HCT [2, 9] was 39.78% and the HGB [2, 9] was 13.31 g/dL. The MCH [2, 9] was 17.50 pg, the MCHC [2, 9] was 33.47 g/dL and the MCV [2, 9] was 52.32 fL. The PLT [2, 9] was 918000 µL⁻¹, the RBC [2, 9] was 7.61e+06 µL⁻¹ and the W-LCR [2, 9] was 21.77%. The W-MCR [2, 9] was 2.77%, the W-SCR [2, 9] was 74.94 * % and the WBC [2, 9] was 3590 µL⁻¹. For the same molecule, the HCT [2, 10] was 40.70%, the HGB [2, 10] was 13.27 g/dL and the MCH [2, 10] was 17.46 pg. The MCHC [2, 10] was 33.03 g/dL, the MCV [2, 10] was 52.80 fL and the PLT [2, 10] was 780330 µL⁻¹. The RBC [2, 10] was 7.61e+06 µL⁻¹, the W-LCR [2, 10] was 22.91% and the W-MCR [2, 10] was 3.10%. For the same molecule, the W-SCR [2, 10] was 73.06%, the WBC [2, 10] was 4.88* ×10^3/μL and the ALT [2, 11] was 43.99 U/L. The AST [2, 11] was 105.30 U/L, the BT [2, 11] was 0.67 mg/dL and the CA [2, 11] was 9.91 mg/dL. It also gave a CRE [2, 11] of 0.37 mg/dL, a CT [2, 11] of 137.00 mg/dL and an FA [2, 11] of 103.67 U/L. It also gave a GGT [2, 11] of 2.33 U/L, a GLUCOSE [2, 11] of 127.41 mg/dL and an HCT [2, 11] of 38.33%. It also gave an HGB [2, 11] of 12.51 g/dL, an MCH [2, 11] of 17.12 pg and an MCHC [2, 11] of 32.69 g/dL. The MCV [2, 11] was 52.46 fL, the PLT [2, 11] was 971900 µL⁻¹ and the PT [2, 11] was 5.56 g/dL. It also gave an RBC [2, 11] of 7.3e+06 µL⁻¹, a TRI [2, 11] of 94.50 mg/dL and a UREIA [2, 11] of 60.48 mg/dL. For the same molecule, the W-LCR [2, 11] was 40.81 * %, the W-MCR [2, 11] was 5.41% and the W-SCR [2, 11] was 51.88 * %. It also gave a WBC [2, 11] of 1610 µL⁻¹, an ALT [2, 12] of 69.54 U/L and an AST [2, 12] of 134.48 U/L. It also gave a BT [2, 12] of 0.25 mg/dL, a CA [2, 12] of 9.76 mg/dL and a CRE [2, 12] of 0.28 mg/dL. It also gave a CT [2, 12] of 154.56 mg/dL, an FA [2, 12] of 69.67 U/L and a GGT [2, 12] of 0.00 U/L. For the same molecule, the GLUCOSE [2, 12] was 129.24 mg/dL, the HCT [2, 12] was 38.59% and the HGB [2, 12] was 12.64 g/dL. For the same molecule, the MCH [2, 12] was 17.34 pg, the MCHC [2, 12] was 32.76 g/dL and the MCV [2, 12] was 53.00 fL. It also gave a PLT [2, 12] of 1.03444e+06 µL⁻¹, a PT [2, 12] of 5.74 g/dL and an RBC [2, 12] of 7.28e+06 µL⁻¹. The TRI [2, 12] was 116.7 mg/dL, the UREIA [2, 12] was 30.02 * mg/dL and the W-LCR [2, 12] was 16.37 * %. For the same molecule, the W-MCR [2, 12] was 3.36 * %, the W-SCR [2, 12] was 79.52 * % and the WBC [2, 12] was 4700 µL⁻¹. It also gave an ALT [2, 13] of 57.17 U/L, an AST [2, 13] of 124.78 U/L and a BT [2, 13] of 0.43 mg/dL. For the same molecule, the CA [2, 13] was 10.38 mg/dL, the CRE [2, 13] was 0.31 mg/dL and the CT [2, 13] was 183.56 mg/dL. The FA [2, 13] was 85.88 U/L, the GGT [2, 13] was 0.50 U/L and the GLUCOSE [2, 13] was 105.23 mg/dL. The HCT [2, 13] was 40.41%, the HGB [2, 13] was 13.26 g/dL and the MCH [2, 13] was 17.03 pg. The MCHC [2, 13] was 32.80 g/dL, the MCV [2, 13] was 51.91 fL and the PLT [2, 13] was 1.05633e+06 µL⁻¹. It also gave a PT [2, 13] of 5.22 g/dL, an RBC [2, 13] of 7.79e+06 µL⁻¹ and a TRI [2, 13] of 84.90 mg/dL. For the same molecule, the UREIA [2, 13] was 74.16 mg/dL, the W-LCR [2, 13] was 20.89 * % and the W-MCR [2, 13] was 4.17%. For the same molecule, the W-SCR [2, 13] was 74.40* %, the WBC [2, 13] was 4110 µL⁻¹ and the “histopathology, kidneys” value ([2]; mice, both sexes, 250 mg/kg) was “areas of basophilic proximal tubules and tubular dilatation”. For the same molecule, the ophthalmological health ([2]; mice, either sex, 250 mg/kg) was “No changes”, the “biochemical and hematological parameters” value ([2]; mice, male and female, 28 days, main groups) was “slight changes” and the “histopathology, kidneys” value ([2]; mice, 10 mg/kg and 80 mg/kg, recovery group) was “not observed”. The “macroscopic evaluation at necropsy” value ([2]; mice, 28 days) was “did not reveal significant changes”, the “urine parameters (volume, specific gravity, pH, protein)” value ([2]; mice, 28 days, main groups) was “No significant changes” and the “levels of N6-furfuryladenine in viral RNA vs isotype control and nil-treated cells” value [3] was “more than 10 fold”. The EC50 [4, 14] was 0.3 µM, the EC90 [4, 14] was 8 µM and the “effect of co-treatment with raltegravir or dolutegravir (iEXO) on inhibition of SARS-COV-2” value ([4]; calu-3, drug 10 μM, raltegravir or dolutegravir 5 μM) was “synergistic”.
